Source: ChEMBL document CHEMBL1132617, “Diversity analysis of 14 156 molecules tested by the National Cancer Institute for anti-HIV activity using the quantitative structure-activity relational expert system MCASE” (J Med Chem, 1999)
One block for each compound: values may come before it. The source made the active and inactive calls. The rule behind the calls is not given here.

Legend:
[1] = system: Human immunodeficiency virus 1; test: HIV antiviral activity; assay type: functional
[2] = target: Human immunodeficiency virus type 1 protease (Human immunodeficiency virus 1) (UniProt Q72874); test: Antiviral activity as inhibition of HIV protease; Active
[3] = target: Human immunodeficiency virus type 1 reverse transcriptase (Human immunodeficiency virus 1) (UniProt Q72547); test: Antiviral activity as inhibition of HIV reverse transcriptase; Inactive
[4] = target: Human immunodeficiency virus type 1 protease (Human immunodeficiency virus 1) (UniProt Q72874); test: Antiviral activity as inhibition of HIV protease; Inactive
[5] = target: Human immunodeficiency virus type 1 integrase (Human immunodeficiency virus 1) (UniProt Q7ZJM1); test: Antiviral activity as inhibition of HIV integrase; Inactive
Sequence of Human immunodeficiency virus type 1 integrase (Human immunodeficiency virus 1) (Q7ZJM1 as listed by the source): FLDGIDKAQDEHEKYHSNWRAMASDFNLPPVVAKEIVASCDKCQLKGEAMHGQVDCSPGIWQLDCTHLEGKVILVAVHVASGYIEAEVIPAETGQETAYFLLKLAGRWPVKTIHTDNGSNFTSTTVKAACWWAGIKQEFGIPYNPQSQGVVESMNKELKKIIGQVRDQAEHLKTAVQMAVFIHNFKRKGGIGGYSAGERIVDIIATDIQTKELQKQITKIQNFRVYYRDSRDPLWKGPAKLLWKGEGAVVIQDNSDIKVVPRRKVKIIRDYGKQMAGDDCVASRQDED

[6] = target: Human immunodeficiency virus type 1 reverse transcriptase (Human immunodeficiency virus 1) (UniProt Q72547); test: Antiviral activity as inhibition of HIV reverse transcriptase; Active

Structure (SMILES): C=C/C=C\C=C\[PH](=O)/C=C/C (centres undefined)
Average activity [1]: 51

Structure (SMILES): O=C1C2=C(C(=O)c3ccccc31)C(O)(S(=O)(=O)O)C(O)(S(=O)(=O)O)C1N=CC=CC21 (centres undefined)
Activity [2]: Active

Structure (SMILES): CC1C(=O)NC(=O)N(COCCO)C1Sc1cccc(O)c1 (centres undefined)
Activity [3]: inactive

Structure (SMILES): CCCCCCc1cc2c(cc1O)CC(=O)C(C(c1ccccc1)C1COc3cc(O)c(CCCCCC)c(O)c3C1)=C2O (centres undefined)
Activity [2]: Active

Structure (SMILES): O=c1c(O)c(-c2ccc(O)cc2)oc2cc(O)cc(O)c12
Activity [5]: inactive

Structure (SMILES): CCC(F)CC
Average activity [1]: 56

Structure (SMILES): CCC1OC1C (centres undefined)
Average activity [1]: 56

Structure (SMILES): CCOCN1C(=O)NC(=O)C(C)C1Sc1ccccc1 (centres undefined)
Activity [6]: Active

Structure (SMILES): CCN1c2ccccc2C2NC=C(C)C2c2ccc(OC)cc21 (centres undefined)
Activity [6]: Active

Structure (SMILES): CCC(Cl)CC
Average activity [1]: 56

Continued, values first:

Average activity [1]: 51
Structure (SMILES): C=C/C=C/C=C/S(=O)(=O)/C=C/C

Average activity [1]: 60
Structure (SMILES): C=C/C(=C\C)NC(C)=O

Average activity [1]: 56
Structure (SMILES): CCC(I)CC

Average activity [1]: 60
Structure (SMILES): C=CC(=C\C)/N=C(\C)S

Activity [4]: inactive
Structure (SMILES): O=C(O)C1Cc2cc3c(cc2C(O)C1CO)OCO3 (centres undefined)

Average activity [1]: 64
Structure (SMILES): CC(=O)NC(=O)N(C)C1CCC(N=[N+]=[N-])O1 (centres undefined)

Average activity [1]: 51
Structure (SMILES): C=C/C=C\C=C\[S+]([O-])/C=C/C (centres undefined)

Average activity [1]: 51
Structure (SMILES): C=C/C=C\C=C\C(=O)/C=C/C

Average activity [1]: 37
Structure (SMILES): C=C/C(=C\C)C(=O)N/C(C)=C/C
